Laboratory results from patent US20040063661A1, “Treatment of statin side effects” (priority 2000, published 2004).
Several values for one entry are separate records, joined by “and”; a condition that tells them apart may be missing. Equal entries are not always repeated.

Experiments:
Format in all cases: in vivo, human
[1] = Pilot clinical study Q10: blood Q10 level (patient compliance); settings: one line per patient
Protocol: (§1) Commencing at WK(0) and continuing through the study the patients were asked to take a daily dose of 300 mg of Coenzyme Q10 (Q10), which was administered as […] sof gel capsules (commercially available from R. P. Scherer), morning and evening.

[2] = system: alanine aminotransferase; test: Pilot clinical study Q10: blood alanine aminotransferase concentration (measure of liver damage)
Protocol: as §1

[3] = system: serum cholesterol, HDL-cholesterol or LDL-cholesterol and triglyceride levels; test: Pilot clinical study Q10: serum lipids levels under statin therapy; settings: patients #1-#4; 300 mg Q10 daily; WK(0) vs WK(+4)
Protocol: as §1

[4] = system: statin induced muscle pain; test: Pilot clinical study Q10: McGill Pain Questionnaire (PRI, PPI); settings: for PRI (Pain Rating Index), first score / PRI (Pain Rating Index), second score: patients on statin therapy; for PRI (Pain Rating Index), first score / PRI (Pain Rating Index), second score / PPI (Present Pain Intensity): one line per patient
Excerpt: (§2) Table 2 outlines data for four patients (numbered #1-#4) undergoing statin therapy for treatment of hypercholesterolemia and who had reported suffering from varying levels of muscular pain and fatigue. This study is ongoing, but the results below follow the study with these four patients from week minus1 (WK(-1)) to week plus 4 (WK(+4)). Patients were either contacted or attended the clinic at weeks -1, 0, +1, +2 and +4. At the clinic on the first week (WK(-1)) details of the patients' statin medication were recorded and daily doses were noted. Patients were also scored for pain using the McGill Pain Questionnaire (Melzack, R., 1975 “The McGill Pain Questionnaire: Major Properties and Scoring Methods”. Pain 1:277-299, the disclosure of which is included herein in its entirety by way of reference) scales for Pain Rating Index (PRI) and Present Pain Intensity (PPI). In the PRI index, which comprises two scores, higher scores indicate increasing levels of pain. In the PPI index present pain is given a score of 0 to 5, where 0 represents no pain and 5 represents excruciating pain. Patients were also scored at WK(-1) for fatigue using the Fatigue Impact Scale (Fisk, J. D. et al, 1994, “Measuring the functional impact of fatigue: Initial Validation of the Fatigue Impact Scale”, Clinical Infectious Disease, 18 (Suppl 1):[…]-83, the disclosure of which is included herein in its entirety by way of reference). Questionnaires to determine PRI, PPI and FIS scores were conducted thereafter at weeks +1, +2 and +4. At weeks +1 and +2 the patients were contacted by telephone and were asked to mail their self assessment questionnaires to the clinic. Commencing at WK(0) and continuing through the study the patients were asked to take a daily dose of 300 mg of Coenzyme Q10 (Q10), which was administered as […] sof gel capsules (commercially available from R. P. Scherer), morning and evening.

[5] = system: muscle pain; test: Case report: Coenzyme Q10 in a patient with unexplained muscle pain and viral infections (Example 1)
Excerpt: The patient had suffered for a number of years from unexplained muscle pain which started in the legs and gradually spread to other skeletal muscles. During the worst of the symptoms, the patient was unable to raise their arms above their head and was unable to drive a car. Walking was also difficult. […] The patient was eventually diagnosed as suffering from a number of viral infections: cytomegalovirus (CMV), Epstein-Barr virus (EBV) and hepatitis A. The patient was started on a regimen of 150 mg per day of Coenzyme Q10. […] The improvement was reported as permanent provided that the patient kept taking Q10.

[6] = system: statin induced fatigue; test: Pilot clinical study Q10: Fatigue Impact Scale (FIS); settings: for FIS (Fatigue Impact Scale): one line per patient
Excerpt: as §2

[7] = system: creatine kinase; test: Pilot clinical study Q10: blood creatine kinase concentration (measure of muscle trauma)
Protocol: as §1

[8] = WK(+4), 300 mg Q10 daily from WK(0)
[9] = 300 mg Q10 daily to WK(+4), a few patients
[10] = WK(+1), 300 mg Q10 daily from WK(0)
[11] = WK(+2), 300 mg Q10 daily from WK(0)
[12] = 150 mg per day of Coenzyme Q10, within several days

SMILES: COC1=C(OC)C(=O)C(C/C=C(\C)CC/C=C(\C)CC/C=C(\C)CC/C=C(\C)CC/C=C(\C)CC/C=C(\C)CC/C=C(\C)CC/C=C(\C)CC/C=C(\C)CCC=C(C)C)=C(C)C1=O [Q10, Coenzyme Q10]
- Q10 (blood level) ([1]; WK(0), baseline before Q10): 0.59 µg/mL and 0.46 µg/mL and 1.39 µg/mL
- Q10 (blood level) [1, 8]: 2.42 µg/mL and 2.49 µg/mL and 1.92 µg/mL and 2.22 µg/mL
- ALT (alanine aminotransferase concentration) ([2]; WK(0), baseline before Q10, normal range 0-40, one line per patient): 31 units/L and 14 units/L and 33 units/L
- ALT (alanine aminotransferase concentration) ([2]; WK(+4), 300 mg Q10 daily from WK(0), normal range 0-40, one line per patient): 25 units/L and 11 units/L and 19 units/L and 35 units/L
- effect on statin therapy with respect to serum cholesterol, HDL-cholesterol or LDL-cholesterol and triglyceride levels [3]: did not significantly affect statin therapy
- change in PRI scores (overall statement) [4, 9]: Marginal decreases
- PRI (Pain Rating Index), first score [4, 10]: 22 and 0 and 48 and 19
- PRI (Pain Rating Index), second score [4, 10]: 10 and 0 and 21 and 7
- PPI (Present Pain Intensity) ([4]; WK(+1), 300 mg Q10 daily from WK(0), score 0 to 5): 2 and 0 and 3 and 1
- PRI (Pain Rating Index), first score [4, 11]: 25 and 9 and 54 and 10
- PRI (Pain Rating Index), second score [4, 11]: 11 and 6 (2×) and 23
- PPI (Present Pain Intensity) ([4]; WK(+2), 300 mg Q10 daily from WK(0), score 0 to 5): 2 (3×) and 1
- PRI (Pain Rating Index), first score [4, 8]: 8 and 4 and 46 and 9
- PRI (Pain Rating Index), second score [4, 8]: 4 and 1 and 20 and 5
- PPI (Present Pain Intensity) ([4]; WK(+4), 300 mg Q10 daily from WK(0), score 0 to 5): 2 (3×) and 1
- PRI (Pain Rating Index), first score ([4]; WK(−1), baseline before Q10): 15 and 10 and 69 and 12
- PRI (Pain Rating Index), second score ([4]; WK(−1), baseline before Q10): 5 (2×) and 3 and 30
- PPI (Present Pain Intensity) ([4]; WK(−1), baseline before Q10, score 0 to 5 (5 = excruciating pain)): 2
- general sense of well being (patient report) [5, 12]: general sense of well being has improved
- muscle pain (patient report) [5, 12]: muscle pain had subsided noticeably
- pain after the patient recommenced the Q10 treatment ([5]; treatment recommenced): the pain diminished within a short period
- muscle pain after the patient stopped taking the Q10 ([5]; treatment stopped on one occasion): the muscle pain returned
- change in FIS scores (overall statement) [6, 9]: Marginal decreases
- FIS (Fatigue Impact Scale) [6, 10]: 42 and 19 and 91 and 18
- FIS (Fatigue Impact Scale) [6, 11]: 47 and 44 and 90 and 16
- FIS (Fatigue Impact Scale) [6, 8]: 43 and 6 and 90 and 16
- FIS (Fatigue Impact Scale) ([6]; WK(−1), baseline before Q10, patients on statin therapy): 48 and 39 and 104 and 15
- CK (creatine kinase concentration) ([7]; WK(0), baseline before Q10, normal range 0-200, one line per patient): 175 units/L and 69 units/L and 39 units/L and 160 units/L
- CK (creatine kinase concentration) ([7]; WK(+4), 300 mg Q10 daily from WK(0), normal range 0-200, one line per patient): 127 units/L and 78 units/L and 32 units/L and 148 units/L
